Patent US9409904B2, “Compounds and compositions for use in augmentation of glucose” (YISSUM RESEARCH DEVELOPMENT COMPANY OF THE HEBREW …, priority 2011, dated 2016)
“Also recorded” adds a separate entry of the source.

Columns and labels:
L6 myotubes [1] = assay: [3H]-2-deoxy-D-glucose (dGlc) uptake assay in L6 myotubes; format: cell-based
Description: The effect of the various derivatives on the rate of glucose uptake in L6 myotubes was investigated. […] The abundance of GLUT1 and GLUT4 in the plasma membranes of L6 myotubes was determined in cells expressing GLUT-1myc or GLUT-4myc, as described before. […] In addition, the effect of compounds on the glucose—stimulated insulin secretion (GSIS) was investigated.
L6 myotubes were maintained as described in [21]. All experiments were conducted on fully differentiated myotubes.
The rate of [^3H]dGlc uptake in myotubes, in the absence or presence of insulin, was determined as described in [21]. […] […] The cultures were then rinsed 3 times with PBS at room temperature and incubated with PBS, pH 7.4, containing 0.1 mM dGlc and 1.0 μCi/ml [^3H]dGlc for 5 minutes at room temperature. At the end of the assay, the myotubes were lysed in 0.1% (w/v) SDS in water and taken for liquid scintillation.

AMPK = assay: Thr172 phosphorylation of AMPK in L6 myotubes, Western blot of whole cell lysates; format: cell-based
Description: The effect of the various derivatives on the rate of glucose uptake in L6 myotubes was investigated. […] The abundance of GLUT1 and GLUT4 in the plasma membranes of L6 myotubes was determined in cells expressing GLUT-1myc or GLUT-4myc, as described before. […] In addition, the effect of compounds on the glucose—stimulated insulin secretion (GSIS) was investigated. Whole cell lysates were prepared as previously described with some minor modifications: the lysis buffer contained 50 mM Tris-HCl, pH 7.5, 1 mM EDTA, 1 mM EGTA, 1 mM Na3VO4, 150 mM NaCl, 50 mM NaF, 10 mM sodium-glycerophosphate, 5 mM sodium pyrophosphate, and 1 mM PMSF, supplemented with 0.1% (v/v) NP-40, 0.1% (v/v) 2-β-mercaptoethanol, and protease inhibitor cocktail (1:100 dilution). The cells were washed by ice-cold PBS, and 1 ml of lysis buffer was then added and incubated at 4° C. for 40 minutes. The resulting cell lysates were centrifuged at 8,700 g×30 minutes at 4° C. and the resulting supernatant fractions were separated and kept at −20° C. until used. Protein content in the supernatant was determined according to Bradford, using a BSA standard dissolved in the same buffer. […] Samples for Western blot analyses of GLUT1 and GLUT4 were prepared as described in [22]. The proteins were separated on 10% SDS-PAGE and Western blot analyses performed using antibodies according to our previously established protocols.

L6 myotubes [2] = assay: Cytotoxic effects in L6 myotube cultures; format: cell-based; conditions: above 100 μM
diabetic KKAy mice [3] = assay: Intraperitoneal glucose tolerance test (IP-GTT) in KKAy mice; format: in vivo
Excerpt: (§1) The effect of the various ethoxybenzo-thiazol derivatives on the blood glucose level in diabetic KKAy mice was investigated. The in vivo antihyperglycemic effect of the lead compound was investigated in hyperglycemic and hyperinsulinemic KKAy mice, an established animal model for T2DM, after subcutaneous injections. Venous blood samples from small tail clips were taken for glucose determination. Finally, to investigate the effect of the lead compound on whole body glucose disposal in the mice we performed standard IP-GTT tests following an overnight fast.
A standard IP-GTT test was performed on mice after an overnight fast. Glucose in saline was injected intraperitoneally (1.5 g/kg body weight). Venous blood samples from small tail clips were taken for glucose determination using a glucometer (FreeStyle Freedom, Abbott Diabetes Care, Alamada, Calif.).
(§2) The antihyperglycemic potential of 34 was investigated in an animal model of diabetes. Test compound was injected subcutaneously (75 mg per kg body weight, suspension in sesame oil, twice daily) to diabetic KKAy mice; control mice received the vehicle only. The blood glucose levels at day zero, 20.8±0.9 and 22.3±1.3 mM for the control and 34-treated groups, respectively, were taken as the reference 100% values in FIG. 4A. […] It should be noted, however, that despite the marked antihyperglycemic effects of 34, normoglycemia was not reached. To better evaluate the potential of 34, the glucose tolerance of treated KKAy mice was evaluated using a standard IP-GTT. The mice were treated with 34 as described above for two days, after which IP-GTT was performed after an overnight fast, as described. […] IP-GTT was performed following an overnight fast in mice treated with 34 or oil, as described herein above. […] The cells were grown in standard RPMI1640 complete culture medium, treated with 10 μM compound 20 and incubated for the indicate time periods. At the end of incubations the cells were taken for a standard GSIS assay described herein.

GLUT4myc = assay: Colorimetric determination of surface GLUT4myc in L6 myotubes; format: cell-based
Description: The colorimetric detection of surface GLUT4myc or GLUT1myc in L6 myotubes was performed as described in [7]. Briefly, cultured myotubes were incubated with rabbit anti-C-Myc antibody (1:200 dilution), washed and fixed with 3% formaldehyde, and further interacted with goat HRP-conjugated anti-rabbit IgG (1:2000 dilution). Following the washes, a solution of OPD was added, and the culture plates were taken for absorbance measurement at 492 nM to estimate the relative abundance of GLUT1myc or GLUT4myc on the plasma membrane of the myotubes. The GLUT1myc and GLUT4myc L6 cell cultures were the courtesy of Dr. A. Klip, Hospital for Sick Children (Toronto, ON, Canada).
The capacity of compound 34 to increase the rate of glucose uptake by increasing GLUT4 content in the plasma membrane of myotubes was tested. […] The cells expressing GLUT1myc or GLUT4myc were treated with 25 μM of 34 or DMSO as described above. At the end of the incubation, the cultures were taken for immunodetection of surface GLUT1myc (open bars) or GLUT4myc (black bars), as described herein above.

diabetic KKAy mice [4] = assay: Blood glucose level in diabetic KKAy mice after subcutaneous injection; format: in vivo; conditions: for reduction of blood glucose: 75 mg/kg s.c. twice daily in sesame oil
Excerpt: as §1
Diabetic male KKAy mice (8 to 12-week old, 20-25 g) were purchased from The Jackson Laboratory (Bar Harbor, Me.). The animals were routinely kept in 12-h light/dark cycles and provided with food and water ad libitum. Blood glucose levels at sacrifice ranged between 17-25 mmol/l. The ethics committee (IACUC) of the Hebrew University of Jerusalem approved the study protocol for animal welfare. The Hebrew University of Jerusalem is an AAALAC international accredited institution.
as §2

GLUT1 = assay: Total GLUT1 content in whole cell lysates of L6 myotubes, Western blot; format: cell-based
Description: (§3) Whole cell lysates were prepared as previously described with some minor modifications: the lysis buffer contained 50 mM Tris-HCl, pH 7.5, 1 mM EDTA, 1 mM EGTA, 1 mM Na3VO4, 150 mM NaCl, 50 mM NaF, 10 mM sodium-glycerophosphate, 5 mM sodium pyrophosphate, and 1 mM PMSF, supplemented with 0.1% (v/v) NP-40, 0.1% (v/v) 2-β-mercaptoethanol, and protease inhibitor cocktail (1:100 dilution). The cells were washed by ice-cold PBS, and 1 ml of lysis buffer was then added and incubated at 4° C. for 40 minutes. The resulting cell lysates were centrifuged at 8,700 g×30 minutes at 4° C. and the resulting supernatant fractions were separated and kept at −20° C. until used. Protein content in the supernatant was determined according to Bradford, using a BSA standard dissolved in the same buffer. Aliquots (5-60 μg of protein) were mixed with the sample buffer [62.5 mM Tris-HCl, pH 6.8, 2% (w/v) SDS, 10% (v/v) glycerol, 50 mM DTT, and 0.01% (w/v) bromophenol blue], heated at 95° C. for 5 minutes. Samples for Western blot analyses of GLUT1 and GLUT4 were prepared as described in [22]. The proteins were separated on 10% SDS-PAGE and Western blot analyses performed using antibodies according to our previously established protocols.

GLUT4 = assay: Total GLUT4 content in whole cell lysates of L6 myotubes, Western blot; format: cell-based
Description: as §3

CCC1SC(N)=NC1=O (stereo not shown) [Compound 3, 2-amino-5-ethylthiazol-4(5H)-one]
rate of glucose uptake in L6 myotubes (result in words) (L6 myotubes [1]): increase; also recorded: augmented | time of maximal glucose uptake stimulatory effect (L6 myotubes [1]; 100 μM): ≤ 5 h | rate of glucose uptake compared to vehicle (DMSO) treated control (L6 myotubes [1]; 100 μM, basal rate = 100%): 131.4%±6.8% | activity at 100 µM (L6 myotubes [1]; Rattus norvegicus, L6, 100 μM, Mean ± SD (n = 3), Table 1, read-out: Effect on glucose uptake [100 μM] in L6 myotubes (%)): 131 ± 6.8% | maximal effective concentration, glucose uptake (L6 myotubes [1]; dose response, 5 h (3) or 12 h (4, 15)): 100 µM | time of return of Thr172 phosphorylation to the basal hypo-phosphorylated level (AMPK; 100 μM): 3 h | Thr172 phosphorylation in AMPK / AMPK activation (result in words) (AMPK; L6 myotubes): increased | time of maximal (peak) Thr172 phosphorylation in AMPK (AMPK; incubation time): 40 min | cytotoxic effects (L6 myotubes [2]): cytotoxic effects

CCOc1ccc2nc(SCc3nc4ccccc4s3)sc2c1 [Compound 34, 2-((benzothiazol-2-ylmethyl)thio)-6-ethoxybenzothiazole]
glucose tolerance (result in words) (diabetic KKAy mice [3]; 75 mg/kg s.c. twice daily, two days): improved glucose tolerance; also recorded: significantly improved | IP-GTT area under the curve (AUC) (diabetic KKAy mice [3]; two days of treatment, overnight fast, glucose 1.5 g/kg i.p.): 753.6±142.2 mmol glucose/l/min | improvement of total body glucose clearance (diabetic KKAy mice [3]; two-day treatment): 40%-50% | period required to exert action on GLUT4myc translocation (GLUT4myc): 5 h | abundance of GLUT4myc in the plasma membrane (GLUT4myc; 25 μM of 34, insulin): induces GLUT-4; also recorded: increased | normoglycemia (diabetic KKAy mice [4]; 75 mg/kg s.c. twice daily): not reached | reduction of blood glucose (diabetic KKAy mice [4]; day 1): ~30% | reduction of blood glucose (diabetic KKAy mice [4]; day 2): ~45% | reduction of blood glucose (diabetic KKAy mice [4]; day 3): ~50% | total content of GLUT1 in myotubes (GLUT1): Neither compound altered | minimal effective concentration, glucose uptake (L6 myotubes [1]): 25 µM | persistence of stimulatory effect on glucose uptake (L6 myotubes [1]): up to 24 hours | rate of glucose uptake in L6 myotubes (result in words) (L6 myotubes [1]): increase; also recorded: markedly augmented | stimulatory effect on glucose uptake in the presence of wortmannin or Akt/PKB inhibitor (L6 myotubes [1]; 100 nM wortmannin or 100 nM Akt/PKB inhibitor added 30 min before): PI3K- and Akt/PKB-independent manner; also recorded: remained unaltered | increase of rate of glucose uptake, combined effect with insulin (L6 myotubes [1]; 25 μM of 34 (5 hours) plus insulin 100 nM (last 20 minutes)): 148%±29% | increase of rate of glucose uptake (L6 myotubes [1]; 25 μM of 34, last 5 hours, serum free, 23.0 mM D-glucose, without insulin): 75%±17% | increase of rate of glucose uptake (L6 myotubes [1]; under similar experimental conditions (5 hours)): 2.5 fold | time to significant Thr172 phosphorylation of AMPK (AMPK; incubation time): ≤ 1 h | total content of GLUT4 in myotubes (GLUT4): Neither compound altered
